We go through 10 compounds from PubChem BioAssay AID330 (DTP/NCI, 2004).

Where “and” joins values, the source holds several entries; their conditions need not be identical. Equal entries are not always repeated. Toxic doses and inconclusive results are not listed.

For the assay, the system named is P388 leukemia ip, CD2F1 mice, survival T/C. As to the kind of experiment: NCI In Vivo Anticancer Drug Screen. Data for tumor model P388 Leukemia (intraperitoneal) in CD2F1 (CDF1) mice. The note with it: endpoint: median survival time, higher = longer survival. The method in brief:
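Mice carrying the transplanted tumor received test compound or vehicle. Survival was recorded in each group, and the value is the treated-group measurement divided by that of the vehicle-treated control group.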

The mark [1] stands for this setting: dose: 100.0 mg/kg/injection, schedule: Q01DX009 (ip), vehicle: saline with Tween-80.
The mark [2] stands for this setting: dose: 200.0 mg/kg/injection, schedule: Q01DX009 (ip), vehicle: saline with Tween-80.
Where [3] appears, read: dose: 12.5 mg/kg/injection, schedule: Q04DX003 (ip), vehicle: saline with Tween-80.
The mark [4] stands for this setting: dose: 50.0 mg/kg/injection, schedule: Q04DX003 (ip), vehicle: saline with Tween-80.

Consider `Cc1ccc(S(=O)(=O)N/N=C\c2cccnc2)cc1`, for which the T/C (dose: 12.5 mg/kg/injection, schedule: Q01DX009 (ip), vehicle: other) is 105 % of control; the T/C (dose: 25.0 mg/kg/injection, schedule: Q01DX009 (ip), vehicle: other) was 110 % of control; the T/C (dose: 50.0 mg/kg/injection, schedule: Q01DX009 (ip), vehicle: other) is 105 % of control; the T/C (dose: 100.0 mg/kg/injection, schedule: Q01DX009 (ip), vehicle: other) was 109 % of control and 95 % of control; the T/C (dose: 200.0 mg/kg/injection, schedule: Q01DX009 (ip), vehicle: other) is 99 % of control and 100 % of control; the T/C (dose: 400.0 mg/kg/injection, schedule: Q01DX009 (ip), vehicle: other) was 101 % of control.
As for `CC(C)CC(C)(c1ccc(O)cc1)c1ccc(O)cc1`, the T/C was 105 % of control under setting [1] and 105 % of control under setting [2].
With `COc1cc(C2C(C)=COc3cc4c(cc32)OCO4)cc(OC)c1OC` (centres undefined), the T/C by setting is: (dose: 60.0 mg/kg/injection, schedule: Q01DX005 (ip), vehicle: saline with Tween-80) 93 % of control; (dose: 120.0 mg/kg/injection, schedule: Q01DX005 (ip), vehicle: saline with Tween-80) 100 % of control; (dose: 240.0 mg/kg/injection, schedule: Q01DX005 (ip), vehicle: saline with Tween-80) 93 % of control.
For the compound `[N-]=[N+]=CC(=O)c1ccc(Cl)cc1`, the T/C is 108 % of control (dose: 100.0 mg/kg/injection, schedule: Q04DX003 (ip), vehicle: Klucel (hydroxypropylcellulose) (HPC)); 115 % of control (dose: 200.0 mg/kg/injection, schedule: Q04DX003 (ip), vehicle: Klucel (hydroxypropylcellulose) (HPC)); 107 % of control (dose: 400.0 mg/kg/injection, schedule: Q04DX003 (ip), vehicle: Klucel (hydroxypropylcellulose) (HPC)).
Consider `C[C@]12CC[C@H](OC(=O)Cc3ccc(N(CCCl)CCCl)cc3)CC1=CC[C@@H]1[C@@H]2CC[C@]2(C)C(=O)CC[C@@H]12`, for which the T/C was 95 % of control (dose: 16.0 mg/kg/injection, schedule: Q03HX024 (ip), vehicle: saline); 90 % of control (dose: 32.0 mg/kg/injection, schedule: Q03HX008 (ip), vehicle: saline); 100 % of control (dose: 32.0 mg/kg/injection, schedule: Q03HX016 (ip), vehicle: saline); 90 % of control (dose: 32.0 mg/kg/injection, schedule: Q03HX024 (ip), vehicle: saline); 100 % of control (dose: 64.0 mg/kg/injection, schedule: Q01DX009 (ip), vehicle: saline); 104 % of control (dose: 64.0 mg/kg/injection, schedule: Q01DX009 (sc), vehicle: saline). Besides, the T/C by setting is: (dose: 64.0 mg/kg/injection, schedule: Q03HX008 (ip), vehicle: saline) 109 % of control; (dose: 64.0 mg/kg/injection, schedule: Q03HX016 (ip), vehicle: saline) 109 % of control; (dose: 64.0 mg/kg/injection, schedule: Q03HX024 (ip), vehicle: saline) 109 % of control; (dose: 128.0 mg/kg/injection, schedule: Q01DX009 (ip), vehicle: saline) 95 % of control; (dose: 128.0 mg/kg/injection, schedule: Q01DX009 (sc), vehicle: saline) 109 % of control; (dose: 128.0 mg/kg/injection, schedule: Q03HX008 (ip), vehicle: saline) 168 % of control. Besides, the T/C (dose: 128.0 mg/kg/injection, schedule: Q03HX016 (ip), vehicle: saline) was 154 % of control; the T/C (dose: 128.0 mg/kg/injection, schedule: Q03HX024 (ip), vehicle: saline) was 100 % of control; the T/C (dose: 128.0 mg/kg/injection, schedule: Q04DX003 (ip), vehicle: saline) is 100 % of control; the T/C (dose: 200.0 mg/kg/injection, schedule: Q04DX003 (ip), vehicle: saline with Tween-80) was 150 % of control; the T/C (dose: 256.0 mg/kg/injection, schedule: Q01DX001 (ip), vehicle: saline) was 100 % of control; the T/C (dose: 256.0 mg/kg/injection, schedule: Q01DX001 (sc), vehicle: saline) is 100 % of control. Moreover, the T/C is, setting by setting: (dose: 256.0 mg/kg/injection, schedule: Q01DX009 (oral), vehicle: saline) 109 % of control; (dose: 256.0 mg/kg/injection, schedule: Q01DX009 (sc), vehicle: saline) 118 % of control; (dose: 256.0 mg/kg/injection, schedule: Q03HX008 (ip), vehicle: saline) 122 % of control; (dose: 256.0 mg/kg/injection, schedule: Q04DX003 (ip), vehicle: saline) 100 % of control; (dose: 256.0 mg/kg/injection, schedule: Q08DX002 (ip), vehicle: saline) 100 % of control; (dose: 264.0 mg/kg/injection, schedule: Q04DX003 (ip), vehicle: saline with Tween-80) 179 % of control. Also, the T/C is, setting by setting: (dose: 400.0 mg/kg/injection, schedule: Q04DX003 (ip), vehicle: saline with Tween-80) 183 % of control and 200 % of control; (dose: 512.0 mg/kg/injection, schedule: Q01DX001 (ip), vehicle: saline) 104 % of control; (dose: 512.0 mg/kg/injection, schedule: Q01DX001 (sc), vehicle: saline) 104 % of control; (dose: 512.0 mg/kg/injection, schedule: Q01DX009 (ip), vehicle: saline) 150 % of control; (dose: 512.0 mg/kg/injection, schedule: Q01DX009 (oral), vehicle: saline) 113 % of control; (dose: 512.0 mg/kg/injection, schedule: Q04DX003 (ip), vehicle: saline) 122 % of control. The T/C by setting is: (dose: 512.0 mg/kg/injection, schedule: Q08DX002 (ip), vehicle: saline) 118 % of control; (dose: 600.0 mg/kg/injection, schedule: Q04DX003 (ip), vehicle: saline with Tween-80) 112 % of control; (dose: 1024.0 mg/kg/injection, schedule: Q01DX001 (ip), vehicle: saline) 118 % of control; (dose: 1024.0 mg/kg/injection, schedule: Q01DX001 (sc), vehicle: saline) 118 % of control; (dose: 1024.0 mg/kg/injection, schedule: Q01DX009 (oral), vehicle: saline) 109 % of control; (dose: 1024.0 mg/kg/injection, schedule: Q04DX003 (ip), vehicle: saline) 163 % of control. Further, the T/C was 159 % of control (dose: 1024.0 mg/kg/injection, schedule: Q08DX002 (ip), vehicle: saline); 109 % of control (dose: 2048.0 mg/kg/injection, schedule: Q01DX001 (ip), vehicle: saline); 118 % of control (dose: 2048.0 mg/kg/injection, schedule: Q01DX009 (oral), vehicle: saline); 90 % of control (dose: 2048.0 mg/kg/injection, schedule: Q08DX002 (ip), vehicle: saline).
As for `OC1C(c2ccccc2)=C(c2ccccc2)C2(c3ccccc3)CC12c1ccccc1` (centres undefined), the T/C under setting [3] is 93 % of control; the T/C (dose: 25.0 mg/kg/injection, schedule: Q04DX003 (ip), vehicle: saline with Tween-80) is 117 % of control; the T/C under setting [4] was 88 % of control.
Regarding `COc1ccc2c(c1)OC(C)(C)C(c1ccccc1)C2c1ccc(OCCBr)c([N+](=O)[O-])c1` (centres undefined), the T/C (dose: 50.0 mg/kg/injection, schedule: Q01DX005 (ip), vehicle: Klucel (hydroxypropylcellulose) (HPC)) was 101 % of control; the T/C (dose: 100.0 mg/kg/injection, schedule: Q01DX005 (ip), vehicle: Klucel (hydroxypropylcellulose) (HPC)) was 105 % of control; the T/C (dose: 200.0 mg/kg/injection, schedule: Q01DX005 (ip), vehicle: Klucel (hydroxypropylcellulose) (HPC)) is 97 % of control.
For `O=C(NC1CCCCC1)N1CCCC1`, the T/C by setting is: (dose: 50.0 mg/kg/injection, schedule: Q01DX009 (ip), vehicle: saline) 99 % of control; under setting [1], 91 % of control; (dose: 100.0 mg/kg/injection, schedule: Q01DX009 (ip), vehicle: saline) 95 % of control; under setting [2], 86 % of control; (dose: 200.0 mg/kg/injection, schedule: Q01DX009 (ip), vehicle: saline) 102 % of control.
`CCCOP(=S)(N1CC1C)N1CC1(C)C` (centres undefined): the T/C under setting [3] is 122 % of control; the T/C under setting [4] was 154 % of control; the T/C (dose: 66.0 mg/kg/injection, schedule: Q04DX003 (ip), vehicle: saline with Tween-80) was 186 % of control; the T/C under setting [1] was 113 % of control; the T/C (dose: 100.0 mg/kg/injection, schedule: Q04DX003 (ip), vehicle: saline with Tween-80) was 227 % of control; the T/C (dose: 150.0 mg/kg/injection, schedule: Q04DX003 (ip), vehicle: saline with Tween-80) is 118 % of control.
For `CC1=CC(c2ccccc2)=CS(=O)(N(C)C)=C1` (centres undefined), the T/C (dose: 60.0 mg/kg/injection, schedule: Q01DX005 (ip), vehicle: saline) was 100 % of control; the T/C (dose: 120.0 mg/kg/injection, schedule: Q01DX005 (ip), vehicle: saline) was 104 % of control; the T/C (dose: 240.0 mg/kg/injection, schedule: Q01DX005 (ip), vehicle: saline) is 104 % of control.
